{"source": "patent US9918916B2", "about": "“Active ingredient comprising a mixture of unsaturated dicarboxylic fatty acids, compositions comprising said ingredient and cosmetic or dermatological uses” (SEDERMA, priority 2014, dated 2018)", "format_in_all_cases": "cell-based", "key": {"[1]": {"system": "G3PDH", "assay": "G3PDH activity on human adipocytes", "settings": "10 μm", "method": "In this perspective, in vitro tests aiming to show an increase in adipocyte differentiation (with glycerol-3-phosphate dehydrogenase or G3PDH as the key enzyme of this differentiation) on pre-adipocyte cultures were implemented. Other in vitro assays seek to show slower lipolysis on adipocyte cultures to validate the effectiveness of these compounds. Human pre-adipocytes are seeded and induced to differentiate with a specific mixture of inducers (without indomethacine*) in the presence or absence (negative control) of the products to be tested. After 10 days, the cultures are stopped and the residual […] activity is measured by spectrophotometry on a cellular lysate. […] Results"}, "[2]": {"system": "normal human melanocytes", "assay": "Inhibition of melanin synthesis on human melanocytes", "settings": "0.01%", "method": "Normal human melanocytes are cultured in their maintenance medium and then contacted with the products to be tested in the test medium for 10 days. After the contact, melanins are extracted from the cells and assayed by spectrophotometry (490 nm). An estimate of cell number is performed after cultivation using a protein assay by the BCA method. Melanin concentrations are normalized by the sample protein content."}, "[3]": {"system": "hyaluronic acid", "assay": "Synthesis of hyaluronic acid by human keratinocytes", "settings": "1 μm", "method": "Human keratinocytes are cultured for 24 h. The cells are contacted with the products to be tested or their excipient for 3 days. The culture supernatants are recovered and a dosage of the amount of hyaluronic acid is achieved. Retinoic acid is used as a positive control. Quantification of cells present on the layer is carried out with the DNA dye (Hoechst 33258), so as to adjust the dosages to the number of cells."}}, "data": [{"smiles": "CCc1ccc(CCOc2ccc(CC3SC(=O)NC3=O)cc2)nc1", "note": "(stereo not drawn) [Pioglytazone]", "values": [{"measurement": "stimulation of G3PDH activity vs. control (positive control)", "setting": "[1]", "value": "+712%"}]}, {"smiles": "OC[C@H]1O[C@@H](Oc2ccc(O)cc2)[C@H](O)[C@@H](O)[C@@H]1O", "note": "[arbutine]", "values": [{"measurement": "inhibition compared to the control (melanin, positive reference)", "setting": "[2]", "value": 33, "unit": "%"}]}, {"smiles": "CC1=C(/C=C/C(C)=C/C=C/C(C)=C/C(=O)O)C(C)(C)CCC1", "note": "[Retinoic Acid]", "values": [{"measurement": "stimulation of hyaluronic acid synthesis vs. control (positive control)", "setting": "[3]", "value": "+106%"}]}]}
